# US6117859A, “Method of relieving chronic inflammation by using 5-alkylsulfonylsalicylanilides” (The Research Foundation of State University of New York, priority 1999, dated 2000)
# Experiments:
# [1] = test system: TPA induced mouse ear edema; conditions: cited from earlier work
# [2] = Solubility of representative compounds in various solvent systems; format: physicochemical
# Method: The solubility of representative compounds of this invention in various solvent systems was determined. The solvents included ethanol, propylene glycol, SLS, Tween 80™ and combinations thereof.
# [3] = test system: ear weight gain produced by multiple doses of TPA in mice; assay: Chronic (multiple dose) TPA mouse ear inflammation assay, ear weight gain; format: in vivo, mouse (female CD-1); conditions: for % Inhibition of Ear Weight Gain, Relative to Hydrocortisone (HCV) = 100%: head prints 1.25 eg/ear; for Decrease in weight relative to TPA treated biopsies: 20 μg HCV/ear
# Method: The acute skin inflammation model described in Example 1, tests the ability of a compound to prevent inflammation and thus must be applied prophylactically. Most clinical situations, however, are present as chronic inflammatory conditions. […] The effects of the compounds of the present invention and Salifluor on chronically inflamed skin was measured in the mouse ear model that utilizes multiple TPA doses over a 10-day period to produce the inflammatory response.
# The assay used female CD-1 mice (7-9 weeks of age). Following a 2-week quarantine, mice were randomly assigned to test groups (5 mice/groups). TPA (10 uL of 0.01 TPA in acetone) was administered to both the inner and outer surface of each ear (2μg/ear) on day 0,2,4,7, and 9 on protocol. On Day 7,8 and 9, two applications of test article were applied to each ear 2 and 4 hours after dosing with TPA. The test articles were administered in 10 uL aliquots to both the inner and outer surface of each ear (20 μl total/dose). […] Hydrocortisone-17-valerate (HCV, 20μg/ear) was employed as a positive control. Mice were sacrificed at Day 10 on protocol and uniform punch biopsies (approximately 8 mm dia.) were taken from each ear. While on protocol, dermal irritation was scored semiquantitatively at Day 1,3,5,8, and 10.
# (§1) Inhibition of TPA stimulated increased ear weight was used as an initial measure of efficacy for all of the agents tested. One biopsy from each mouse was also quick frozen and stored at -70° C. for later assay of myleoperoxidase, an enzyme associated with infiltrating PMN, or other measure of efficacy. The remaining biopsy from each mouse treated with Trifluorosal or HCV was fixed in formalin and processed for histopathologic evaluation, including measurement of cellular infiltration (PMNs, endothelial cells, macrophages) and epidermal thickness at 20 random sites along the length of the specimen.
# Initially, a dose-response curve for multiple doses of TPA to produce mouse ear weight gain was generated in order to determine the concentration of TPA to be employed in the inhibition studies. […] Another major difference between the multiple TPA dose (or chronic assay for inflammation) and the single TPA dose (or acute assay for inflammation) in the mouse ear is sensitivity to Non-steroidal antiinflammatory drugs (NSAIDs) and antihistamines.
# [4] = Single dose oral tolerance in rats; format: in vivo, rat (male weaning Sprague-Dawley); conditions: single dose 2.5 or 0.75 g/kg in 5% CMC, 7 days
# Method: To test for tolerance of the administered compounds, male weaning Sprague-Dawley rats were fed in a single dose of 2.5 or 0.75 g/kg of TMF-12, TMF-10, TMC-10 or TPC-10 in 5% carboxymethyl cellulose (CMC) or CMC alone. […] At completion of the 7 day observation period, necropsies were performed on all animals.
# [5] = test system: TPA induced mouse ear edema; assay: Acute TPA mouse ear inflammation assay, edema (ear weight); format: in vivo
# From the text: The anti-inflammatory effect of selected compounds of this invention were compared to those of Triclosan™ and hydrocortisone in a modified […] (TPA) mouse ear inflammation assay. TPA was used as an inflammogen rather than croton oil because TPA gives a well characterized inflammatory response at very low concentrations. […] This model can therefore be used to study the pharmacokinetics, clinical efficacy and adverse side effects of anti-inflammatory agents. To quantitate inflammation, ear punches from treated animals were used to measure increased ear mass (edema) and myeloperoxidase (MPO) activity. For the inhibition studies, ear biopsies were weighed six hours after treatment with TPA and the simultaneous application of the compound of the present invention. All the compounds were diluted in acetone. Following this, the biopsies were frozen and subsequently used to measure inhibition of MPO activity, an estimate of polymorphonuclear (PMN) […] activity in the affected area. Percent inhibition of edema was calculated as [c-t]/c x 100, where c and t are increases in ear weight in control and treated mice, respectively.
# Initially a dose-response curve for TPA-induced mouse ear edema was generated in order to determine the concentration of TPA to be employed in the inhibition studies. TPA produced a theoretical dose-response curve for edema with an ED50 of 80 ng/ear and an ED90 of 200 ng/ear in two separate experiments. ED50 is the dose at which 50% of the maximum effect was observed while ED90 is the dose at which 90% of the maximum effect was observed. […] The ED50 values for the compounds tested are as follows: […]
# [6] = test system: TPA treated mouse ear skin; assay: Histopathology of ear biopsies after multiple doses of TPA (epidermal thickness, dermal cellularity); format: in vivo, mouse (female CD-1)
# Method: The assay used female CD-1 mice (7-9 weeks of age). Following a 2-week quarantine, mice were randomly assigned to test groups (5 mice/groups). TPA (10 uL of 0.01 TPA in acetone) was administered to both the inner and outer surface of each ear (2μg/ear) on day 0,2,4,7, and 9 on protocol. On Day 7,8 and 9, two applications of test article were applied to each ear 2 and 4 hours after dosing with TPA. The test articles were administered in 10 uL aliquots to both the inner and outer surface of each ear (20 μl total/dose). The candidate drugs were tested at several different concentrations (e.g., 5, 1.25, and 0.125 mg/ear) to determine a maximum effective dose within a range that could be effectively applied. Hydrocortisone-17-valerate (HCV, 20μg/ear) was employed as a positive control. Mice were sacrificed at Day 10 on protocol and uniform punch biopsies (approximately 8 mm dia.) were taken from each ear. While on protocol, dermal irritation was scored semiquantitatively at Day 1,3,5,8, and 10.
# as §1
# In order to confirm the subjective observations, quantitative determinations of 3 parameters (epidermal thickness, dermal thickness, and dermal cellularity) in the skin of negative controls (acetone), positive controls (TPA), and TPA treated skin treated with 3 doses of test article (Trifluorosal) and hydrocortisone were carried out. Epidermal thickness reflects the reactive proliferative activity induced by TPA in the […]: dermal thickness reflects primarily Ad edema but may also be affected by other phenomena, such as formation of granulation tissue, collagen synthesis, the activity of myofibroblasts, etc. Cellularity of the dermis is frequently used as a surrogate marker of inflammatory changes in the dermis.
# Determination of the epidermal thickness was performed under the microscope with a calibrated scale placed in the eyepiece. Ten determinations were carried out in the epidermis covering the outside of the ear using a 40× objective and a 10× eyepiece (400× total). The measurements were taken from the basal side of the basal layer (basement membrane) to the outer side of the last nucleated cell of the […]. The average of the 10 measurements expressed in microns was entered in the table.
# Determination of dermal thickness was performed using a similar technique. To avoid variability caused by the difference in sizes between the base and tip of the ear, only 3 measurements were performed in the center of the sample. The measurements were performed from the basement membrane of the external and internal epithelial and therefore include, in addition to both dermis (external and internal), the cartilage.
# Cellularity of the dermis was calculated by projecting a calibrated grid into the dermis and counting cells in the known area of the dermis. Areas of hair follicles or sebaceous glands were avoided. Five fields were counted and the results were adjusted to the number of cells in 1,000 square microns.
# The results of individual animals were entered in the table and the averages and standard deviation were calculated using an EXCEL database. In addition, the results were also expressed as a percentage of the control (acetone treated). Furthermore, the percentage of inhibition of the test articles were calculated using the following formula: [formula]
# [7] = test system: ear weight gain produced by multiple doses of TPA in mice; conditions: cited from earlier work
# [8] = in vivo; cited from earlier work
# [9] = aqueous buffer, pH 10 K-buffer @ 35° C.
# [10] = aqueous buffer, pH 10 Na-buffer @ 22° C.
# [11] = organic solvent or mixture, Ethanol @ 19° C.
# [12] = organic solvent or mixture, Propylene Glycol @ 20° C.
# [13] = ph 10 na-buffer +0.5% sls, pH 10 Na-buffer @ 22° C. +0.5% SLS
# [14] = inflammogen dose-response, two separate experiments, 6 hours
structure (smiles),measurement,setting,value
COc1ccc2cc([C@H](C)C(=O)O)ccc2c1 [Naproxen],Inhibition of acute TPA assay by NSAIDs,[1],inhibited
CCCCCCCCCCS(=O)(=O)c1ccc(O)c(C(=O)Nc2ccc(C#N)cc2)c1 [TPC-10],solubility,[2]; +1% sls,690 µg/mL
same,solubility,[2]; +2% sls,910 µg/mL
same,solubility,[2]; +4% sls,1810 µg/mL
same,solubility,[2]; [9],3.45 µg/mL
same,solubility,[2]; [10],9.16 µg/mL
same,solubility,[2]; [11],11500 µg/mL
same,solubility,[2]; [12],810 µg/mL
same,solubility,[2]; [13],300 µg/mL
same,"% Inhibition of Ear Weight Gain, Actual",[3]; multiple doses of TPA,0%
same,"% Inhibition of Ear Weight Gain, Relative to Hydrocortisone (HCV) = 100%",[3]; multiple doses of TPA,0%
same,Illness or deaths,[4],No illness or deaths occurred
CC(C)Cc1ccc(C(C)C(=O)O)cc1 (stereo not shown) [Ibuprofen],Inhibition of acute TPA assay by NSAIDs,[1],inhibited
CCCCCCCCS(=O)(=O)c1ccc(O)c(C(=O)Nc2cccc(C(F)(F)F)c2)c1 [TMF-8],"% Inhibition of Ear Weight Gain, Actual",[3]; multiple doses of TPA,0%
same,"% Inhibition of Ear Weight Gain, Relative to Hydrocortisone (HCV) = 100%",[3]; multiple doses of TPA,0%
"C[C@]12CCC(=O)C=C1CC[C@@H]1[C@@H]2[C@@H](O)C[C@@]2(C)[C@H]1CC[C@]2(O)C(=O)CO [Hydrocortisone, reference compound]",Relative anti-inflammatory potency (in words),[5]; acute assay,the most potent anti-inflammatory agent tested
same,"% Inhibition, Dermal Cellularity",[6]; 0.02 mg/ear,78.6%
same,"% Inhibition, Epidermal Thickness",[6]; 0.02 mg/ear,58.6%
same,Blood vessel prominence (in words),[6]; histopathology,Blood vessels were not as prominent
same,Cellularity of the dermis (in words),"[6]; histopathology, FIG. 1",reduced the epidermal thickness as well as the cellularity of the dermis
same,Epidermal thickness (in words),"[6]; histopathology, FIG. 1",reduced the epidermal thickness
CN1C(C(=O)Nc2ccccn2)=C(O)c2ccccc2S1(=O)=O [piroxicam],Sensitivity of chronic TPA assay to NSAIDs,[7],insensitive
"CCCCCCCCCCCCCC(=O)O[C@@H]1[C@@H](C)[C@@]2(O)[C@@H](C=C(CO)C[C@]3(O)C(=O)C(C)=C[C@@H]23)[C@@H]2C(C)(C)[C@]12OC(C)=O [TPA, 12-tetradecanoyl 13-phorbol acetate, reference compound]",ED50 for TPA-induced ear edema,[5]; [14],80 ng/ear
same,ED90 for TPA-induced ear edema,[5]; [14],200 ng/ear
same,Dose of TPA producing maximal ear weight gain,[3]; multiple doses of TPA,2 μg/ear
same,Dose of TPA with marginal effects on ear weight gain,[3]; multiple doses of TPA,below 1 μg/ear
same,Histopathological change produced by multiple doses of TPA,[6]; multiple doses of TPA,dramatic hyperplasia of the epidermis as well as inflammatory changes in the dermis
O=C(O)Cc1ccccc1Nc1c(Cl)cccc1Cl [diclofenac],Sensitivity of chronic TPA assay to NSAIDs,[7],insensitive
CCCCCCCCCCS(=O)(=O)c1ccc(O)c(C(=O)Nc2cccc(C#N)c2)c1 [TMC-10],solubility,[2]; +0.5% tween 80,770 µg/mL
same,solubility,[2]; +1% sls,4270 µg/mL
same,solubility,[2]; +1.5% tween 80,2240 µg/mL
same,solubility,[2]; +2% SLS + 0.5% Tween 80,3980 µg/mL
same,solubility,[2]; +2% SLS + 1.0% Tween 80,4740 µg/mL
same,solubility,[2]; +2% SLS + 2.0% Tween 80,5050 µg/mL
same,solubility,[2]; +2% sls,6680 µg/mL
same,solubility,[2]; +3.0% tween 80,4690 µg/mL
same,solubility,[2]; +4% sls,7900 µg/mL
same,solubility,[2]; [9],5.58 µg/mL
same,solubility,[2]; [10],7.2 µg/mL
same,solubility,[2]; [11],36700 µg/mL
same,solubility,[2]; [12],1940 µg/mL
same,solubility,[2]; [13],3130 µg/mL
same,"% Inhibition of Ear Weight Gain, Actual",[3]; multiple doses of TPA,0%
same,"% Inhibition of Ear Weight Gain, Relative to Hydrocortisone (HCV) = 100%",[3]; multiple doses of TPA,0%
same,Illness or deaths,[4],No illness or deaths occurred
"Oc1cc(Cl)ccc1Oc1ccc(Cl)cc1Cl [Triclosan, 2',4,4'-trichloro-2-hydroxy-diphenyl-ether]",Anti-inflammatory activity in clinical trials,[8],have been reported to have anti-inflammatory activity in clinical trials
"CCCCC(=O)O[C@]1(C(=O)CO)CC[C@H]2[C@@H]3CCC4=CC(=O)CC[C@]4(C)[C@H]3[C@@H](O)C[C@@]21C [Hydrocortisone 17-valerate, Hydrocortisone-17-valerate, reference compound]",Decrease in weight relative to TPA treated biopsies,[3]; Assay #1,71%
same,Decrease in weight relative to TPA treated biopsies,[3]; Assay #2,107%
same,Inhibition of ear weight gain,"[3]; 20μg/ear, first experiment",86%
